Reference: patent publication US8765786B2, “1-substituted indazole derivative” (Dainippon Sumitomo Pharma Co., Ltd., priority 2012, dated 2014)

Target: T1, human α7 nAChR (Homo sapiens, UniProt P36544)
T1 construct: expressed in transfected cells; host or cells: GH4C1 cells derived from rat pituitary (ATCC CCL-82.2)
Test: Evaluation of PAM activity with human α7 nACh receptor stably expressing cells (aequorin luminescence, FDSS7000)
Type: cell-based
Conditions: for α7PAM (%) @ 10 μmol/L / activity at 10 µM: test compound 10 μmol/L, ACh added at EC20, ratio of RLU (Max-Min) of test wells to control wells; for PAM activity for α7 nAChR: result in words, ratio of RLU (Max-Min) to control wells, ACh EC20; for activity at 10 µM: read-out: α7PAM (%) @ 10 μmol/L
From the text: Human α7 nAChR stably expressing cells were generated and cultured. In detail, GH4C1 cells derived from rat pituitary (cat#CCL-82.2, ATCC, USA) were used as a host cell. PcDNA3.1Zeo vector containing a nucleotide sequence encoding a protein GenBank BAC81731 and pcDNA3.1 vector containing human α7 nAChR gene (cat#V790-20, invitrogen, Carlsbad, Calif., USA) were transfected to the cells to give aequorins and human α7 nAChR stably expressing cells respectively. The aequorins and human α7 nAChR stably expressing cells were screened with Zeocin (cat#R25001, invitrogen, Carlsbad, Calif., USA) and Geneticin (cat #10131-027, invitrogen, Carlsbad, Calif., USA) respectively.
The cells were cultured in F-10 Nutrient Mixture (Ham) medium (cat #11550-043, invitrogen, Carlsbad, Calif., USA) containing 2.5% fetal bovine serum (cat #2917354, ICN Biomedicals, Inc, USA), 15% inactivated horse serum (cat #26050-088, invitrogen, Carlsbad, Calif., USA), 1 μg/mL Geneticin, and 5 μg/mL Puromycin (cat #14861-84, invitrogen, Carlsbad, Calif., USA), in a Collagen Type 1-coated dish (cat #4030-010, iwaki, Tokyo, Japan). During the culture, the medium was replaced with fresh medium in every 2 to 3 days, and the cells were treated with TrypLE Express (cat #45604-021, invitrogen, Carlsbad, Calif., USA) to collect them in every 7 days. Thus, the cells were subcultured.
7 Days after subculturing, the cells were treated with TrypLE Express to collect them when they were about 80% confluent. The cells were suspended in a reaction medium containing Hanks (cat #14065-056, invitrogen, Carlsbad, Calif., USA)/20 mmol/L Hepes (cat #15630-080, invitrogen, Carlsbad, Calif., USA), Buffer (pH 7.4), F-10 Nutrient Mixture (Ham), and 0.1 mg/mL Geneticin, and the suspension was seeded in a 384-well plate (cat #781090, Greiner, Germany) at 20000 cells/25 μL per well.
On the next day after seeding, Viviren (cat#E649X, Promega, Madison, Wis., USA) was added to the medium so that the final concentration could be 4 μmol/L (15 μL/well). The plates were centrifuged and then placed in the dark for 4 hours at room temperature.
Each of the test compounds was dissolved in DMSO to prepare each test sample at a concentration of 1000-fold the final concentration. To the solution was added Hanks/20 mM HEPES/0.2% BSA (cat#A3803, Sigma, St. Louis, Mo., USA), and the concentration was adjusted to 6-fold the final concentration.
FDSS7000 (Hamamatsu Photonics) was used to detect the luminescence signal evoked by α7 nAChR stimulation. The cells and a luminescent substrate were put on a plate, and the test sample was added thereto. […] After the addition of ACh, the luminescence signal (the central wavelength: 465 nm) was measured for 138 seconds to calculate RLU (Max-Min). The ratio of the RLU (Max-Min) of the test-compound-containing wells to that of the control wells was defined as PAM activity.

T1 sequence (P36544 23-502): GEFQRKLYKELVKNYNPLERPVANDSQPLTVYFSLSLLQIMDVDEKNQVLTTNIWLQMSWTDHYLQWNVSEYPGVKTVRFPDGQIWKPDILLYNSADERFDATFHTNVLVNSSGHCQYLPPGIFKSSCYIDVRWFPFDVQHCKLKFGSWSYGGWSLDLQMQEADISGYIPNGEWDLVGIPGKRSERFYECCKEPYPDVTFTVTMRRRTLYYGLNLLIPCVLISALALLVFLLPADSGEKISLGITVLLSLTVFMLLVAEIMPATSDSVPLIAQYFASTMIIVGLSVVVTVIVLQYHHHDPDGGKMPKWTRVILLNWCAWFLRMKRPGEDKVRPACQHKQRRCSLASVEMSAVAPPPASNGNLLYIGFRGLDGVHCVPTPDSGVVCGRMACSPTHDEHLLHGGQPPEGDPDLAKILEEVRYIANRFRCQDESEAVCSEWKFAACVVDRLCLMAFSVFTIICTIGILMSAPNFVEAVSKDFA

| Compound | α7PAM (%) @ 10 μmol/L [%] | other results |
| --- | --- | --- |
| COCC1CCC(NC(=O)N2CCC(n3ncc4cc(OC(F)(F)F)ccc43)CC2)CC1 (centres unmarked) [Example 228] | 276 |  |
| CCc1ccc2c(cnn2C2CCN(C(=O)NC3CCC(OC)CC3)CC2)c1 (centres unmarked) [Example 92] | 356 |  |
| COCc1ccc2c(cnn2C2CCN(C(=O)NC3CCC(F)(F)CC3)CC2)c1 [Example 54] | 657 |  |
| CCc1cnc2c(cnn2C2CCN(C(=O)NC3CCC(OC)CC3)CC2)c1 (centres unmarked) [Example 100] | 198 |  |
| COc1nn(C2CCN(C(=O)NC3CCOCC3)CC2)c2ccc(OC(F)(F)F)cc12 [Example 264] | 263 |  |
| CCc1ccc2c(cnn2C2CCN(C(=O)NC3CCOCC3)CC2)c1 [Example 24] | 745 |  |
| COc1ccc2c(cnn2C2CCN(C(=O)NC3CCC(F)(F)CC3)CC2)c1 [Example 41, N-(4,4-difluorocyclohexyl)-4-(5-methoxy-1H-indazol-1-yl)piperidine-1-carboxamide] |  | PAM activity for α7 nAChR: stronger PAM activity than others |
| COc1ccc(C2(NC(=O)N3CCC(n4ncc5cc(C6CC6)ccc54)CC3)CC2)cc1 [Example 206] | 196 |  |
| CCc1cccc2c1cnn2C1CCN(C(=O)N[C@H]2CC[C@@H](OC)CC2)CC1 [Example 158] | 292 |  |
| CCOc1ccc2c(cnn2C2CCN(C(=O)NC3CCCCC3)CC2)c1 [Example 18, N-cyclohexyl-4-(5-ethoxy-1H-indazol-1-yl)piperidine-1-carboxamide] |  | PAM activity for α7 nAChR: stronger PAM activity than others |
| CCc1ccc2c(c1)c(OC(C)C)nn2C1CCN(C(=O)NC2CCCCC2)CC1 [Example 153] | 386 |  |
| CCOc1ccc2c(cnn2C2CCN(C(=O)NC3CCC(F)(F)CC3)CC2)c1C [Example 281] | 197 |  |
| COCC1CCC(NC(=O)N2CCC(n3ncc4cc(C)ccc43)CC2)CC1 (centres unmarked) [Example 220] | 2160 | PAM activity for α7 nAChR: stronger PAM activity than others |
| Cc1ccc2c(cnn2C2CCN(C(=O)C3CCC(F)(F)CC3)CC2)c1 [Example 133] | 568 |  |
| COC1CC1c1ccc2c(cnn2C2CCN(C(=O)N[C@H]3CC[C@H](OC)CC3)CC2)c1 (some centres unmarked) [Example 246] | 364 |  |
| COC1CCC(NC(=O)N2CCC(n3ncc4cc(Cl)ccc43)CC2)CC1 (centres unmarked) [Example 35] | 411 |  |
| COCc1c(C2CC2)ccc2c1cnn2C1CCN(C(=O)NC2CCC(F)(F)CC2)CC1 [Example 215] | 851 |  |
| CO[C@H]1CC[C@H](NC(=O)N2CCC(n3ncc4cc(OC(F)(F)F)ccc43)CC2)CC1 [Example 219, N-(trans-4-methoxycyclohexyl)-4-[5-(trifluoromethoxy)-1H-indazol-1-yl]piperidine-1-carboxamide] |  | activity at 10 µM: 238% |
| CCOc1cccc2c1cnn2C1CCN(C(=O)NC2CCC(F)(F)CC2)CC1 [Example 192] | 699 |  |
| CCOc1c(CC)ccc2c1cnn2C1CCN(C(=O)NC2CCOCC2)CC1 [Example 274] | 618 |  |
| CCc1ccc2c(c1)c(OC)nn2C1CCN(C(=O)NC2CCOCC2)CC1 [Example 150] | 643 |  |
| Cc1ccc2c(c1)c(OC(C)C)nn2C1CCN(C(=O)NC2CCOCC2)CC1 [Example 208] | 328 |  |
| CCOc1c(C)ccc2c1cnn2C1CCN(C(=O)N[C@H]2CC[C@H](OC)CC2)CC1 [Example 145, 4-(4-ethoxy-5-methyl-1H-indazol-1-yl)-N-(trans-4-methoxycyclohexyl)piperidine-1-carboxamide] |  | activity at 10 µM: 804% |
| CC(C)c1ccc2c(cnn2C2CCN(C(=O)C3CCOCC3)CC2)c1 [Example 107] | 159 |  |

| Compound | α7PAM (%) @ 10 μmol/L [%] | other results |
| --- | --- | --- |
| [2H]C([2H])([2H])O[C@H]1CC[C@H](NC(=O)N2CCC(n3nc(C4CCOCC4)c4cc(C)ccc43)CC2)CC1 [Example 316] | 807 |  |
| Cc1ccc2c(cnn2C2CCN(C(=O)N[C@H]3CC[C@H](OCC4CC4)CC3)CC2)c1 [Example 162] | 1874 |  |
| CCOc1c(C)ccc2c1cnn2C1CCN(C(=O)NC2CCC(F)(F)CC2)CC1 [Example 269] | 835 |  |
| CC(C)Cc1ccc2c(cnn2C2CCN(C(=O)C3CCOCC3)CC2)c1 [Example 103, (4-(5-isobutyl-1H-indazol-1-yl)piperidin-1-yl)(tetrahydro-2H-pyran-4-yl)methanone] |  | activity at 10 µM: 281% |
| COC1CCC(NC(=O)N2CCC(n3ncc4c(OC(F)F)cccc43)CC2)CC1 (centres unmarked) [Example 202] | 195 |  |
| CCc1ccc2c(cnn2C2CCN(C(=O)NC3CCCC3)CC2)c1 [Example 20] | 2215 | PAM activity for α7 nAChR: stronger PAM activity than others |
| CCOc1cccc2c1cnn2C1CCN(C(=O)N[C@H]2CC[C@@H](OC)CC2)CC1 [Example 184] | 200 |  |
| COc1ccc2c(cnn2C2CCN(C(=O)NC3CCC(F)(F)CC3)CC2)c1C1CC1 [Example 280] | 299 |  |
| [2H]C([2H])([2H])Oc1nn(C2CCN(C(=O)NC3CCC(F)(F)CC3)CC2)c2ccc(C(F)(F)F)cc12 [Example 310] | 134 |  |
| [2H]C([2H])([2H])O[C@H]1CC[C@H](NC(=O)N2CCC(n3ncc4cc(CC)ccc43)CC2)CC1 [Example 325] | 997 |  |
| CO[C@H]1CC[C@H](NC(=O)N2CCC(n3ncc4c(C)c(OC(F)F)ccc43)CC2)CC1 [Example 293] | 525 |  |
| COc1nn(C2CCN(C(=O)NC3CCOCC3)CC2)c2ccc(C(F)(F)F)cc12 [Example 266] | 448 |  |
| COc1ccc2c(c1)c(C1CCOCC1)nn2C1CCN(C(=O)NC2CCC(F)(F)CC2)CC1 [Example 261] | 924 |  |
| COCC1CCC(NC(=O)N2CCC(n3ncc4cc(OC(C)C)ccc43)CC2)CC1 (centres unmarked) [Example 235] | 611 |  |
| CCc1cccc2c1cnn2C1CCN(C(=O)C2CCC(F)(F)CC2)CC1 [Example 139] | 1018 |  |
| Cc1c(C2CC2)ccc2c1cnn2C1CCN(C(=O)NC2CCOCC2)CC1 [Example 283, 4-(5-cyclopropyl-4-methyl-1H-indazol-1-yl)-N-(tetrahydro-2H-pyran-4-yl)piperidine-1-carboxamide] |  | activity at 10 µM: 845% |
| O=C(NC1CCC1)N1CCC(n2ncc3cc(C(F)(F)F)ccc32)CC1 [Example 298, N-cyclobutyl-4-[5-(trifluoromethyl)-1H-indazol-1-yl]piperidine-1-carboxamide] |  | activity at 10 µM: 315% |
| O=C(NC1CCC(OC(F)F)CC1)N1CCC(n2ncc3cc(C4CC4)ccc32)CC1 (centres unmarked) [Example 205] | 1187 |  |
| CCc1nn(C2CCN(C(=O)NC3CCOCC3)CC2)c2ccc(OC)cc12 [Example 244] | 324 |  |
| CC1(C)CC(NC(=O)N2CCC(n3ncc4cc(C5CC5)ccc43)CC2)CCO1 (centres unmarked) [Example 210] | 209 |  |
| COc1ccc(CNC(=O)N2CCC(n3ncc4cc(C5CC5)ccc43)CC2)cc1 [Example 193] | 889 |  |
| O=C(NC1CCOCC1)N1CCC(n2ncc3cc(C(F)(F)F)ccc32)CC1 [Example 297] | 340 |  |
| Cc1c(OC(F)F)ccc2c1cnn2C1CCN(C(=O)NC2CCOCC2)CC1 [Example 294] | 523 |  |
| CCOc1nn(C2CCN(C(=O)NC3CCC(F)(F)CC3)CC2)c2ccc(CC)cc12 [Example 61] | 1092 |  |
